Measurements published in PubChem BioAssay AID256 (DTP/NCI, 2004).
Several values for one entry are separate records, joined by “and”; a condition that tells them apart may be missing. Equal values may be shown once. Inconclusive results and toxic doses are left out. How the source made its calls: active means survival T/C of 150% or more; inactive means T/C below 125% in these data.

Tested on: CD2F1 mice, L1210 leukemia ip, survival T/C
Experiment: NCI In Vivo Anticancer Drug Screen. Data for tumor model L1210 Leukemia (intraperitoneal) in CD2F1 (CDF1) mice
Settings: endpoint: mean survival time, higher = longer survival
Procedure: The antitumor activity of compounds was measured in mice bearing transplantable tumors. Survival or tumor size were measured and the results are expressed as the measurement made in the treated group (T) divided by the measurement made in the vehicle treated control group (C). The tumor model used in this assay is L1210 Leukemia (intraperitoneal) in CD2F1 (CDF1) mice

[1] = dose: 100.0 mg/kg/injection, schedule: Q01DX001 (ip), vehicle: saline
[2] = dose: 100.0 mg/kg/injection, schedule: Q01DX009 (ip), vehicle: saline with Tween-80
[3] = dose: 200.0 mg/kg/injection, schedule: Q01DX009 (ip), vehicle: saline with Tween-80
[4] = dose: 100.0 mg/kg/injection, schedule: Q04DX003 (ip), vehicle: saline with Tween-80
[5] = dose: 200.0 mg/kg/injection, schedule: Q04DX003 (ip), vehicle: saline with Tween-80
[6] = dose: 400.0 mg/kg/injection, schedule: Q04DX003 (ip), vehicle: saline with Tween-80
[7] = dose: 400.0 mg/kg/injection, schedule: Q01DX009 (ip), vehicle: saline with Tween-80
[8] = dose: 200.0 mg/kg/injection, schedule: Q01DX001 (ip), vehicle: saline
[9] = dose: 400.0 mg/kg/injection, schedule: Q01DX001 (ip), vehicle: saline
[10] = dose: 100.0 mg/kg/injection, schedule: Q01DX001 (ip), vehicle: saline with Tween-80
[11] = dose: 200.0 mg/kg/injection, schedule: Q01DX001 (ip), vehicle: saline with Tween-80
[12] = dose: 400.0 mg/kg/injection, schedule: Q01DX001 (ip), vehicle: saline with Tween-80
[13] = dose: 12.5 mg/kg/injection, schedule: Q01DX005 (ip), vehicle: saline with Tween-80
[14] = dose: 25.0 mg/kg/injection, schedule: Q01DX005 (ip), vehicle: saline with Tween-80
[15] = dose: 50.0 mg/kg/injection, schedule: Q01DX005 (ip), vehicle: saline with Tween-80
[16] = dose: 100.0 mg/kg/injection, schedule: Q01DX005 (ip), vehicle: saline with Tween-80
[17] = dose: 100.0 mg/kg/injection, schedule: Q04DX002 (ip), vehicle: saline with Tween-80
[18] = dose: 50.0 mg/kg/injection, schedule: Q01DX009 (ip), vehicle: saline with Tween-80

Measured: T/C

CN1CC(=O)NC1=S
inactive: [1] 87 % of control

OC1CCC(CC2CCCCC2)CC1 (configuration not stated)
inactive: [2] 95 % of control | [3] 92 % of control

O=C(Nc1ccc([N+](=O)[O-])cc1)OC1CCS(=O)(=O)C1 (configuration not stated)
inactive: dose: 75.0 mg/kg/injection, schedule: Q04DX003 (ip), vehicle: saline 102 % of control | dose: 150.0 mg/kg/injection, schedule: Q04DX003 (ip), vehicle: saline 98 % of control | dose: 300.0 mg/kg/injection, schedule: Q04DX003 (ip), vehicle: saline 101 % of control

O=C(COc1cccc(Cl)c1)NCc1ccc(Cl)cc1
inactive: [4] 99 % of control | [5] 101 % of control | [6] 91 % of control

N/N=C(/C(=O)c1ccccc1)c1ccccc1
inactive: [2] 95 % of control | [3] 97 % of control | [7] 95 % of control

O=C(Nc1cccc2ccccc12)N(c1ccccc1)c1ccccc1
inactive: [1] 105 % of control | [8] 96 % of control | [9] 94 % of control

O=[N+]([O-])c1ccc(/C=C/C=C\c2cccc(S(=O)(=O)F)c2)c(Cl)c1
inactive: dose: 100.0 mg/kg/injection, schedule: Q01DX009 (ip), vehicle: acetone 100 % of control | [4] 102 % of control | dose: 200.0 mg/kg/injection, schedule: Q01DX009 (ip), vehicle: acetone 104 % of control | [5] 97 % of control | dose: 400.0 mg/kg/injection, schedule: Q01DX009 (ip), vehicle: acetone 104 % of control | [6] 94 % of control

Cc1ccc(S(=O)(=O)NOCCCCONS(=O)(=O)c2ccc(C)cc2)cc1
inactive: dose: 25.0 mg/kg/injection, schedule: Q04DX003 (ip), vehicle: saline with Tween-80 91 % of control | dose: 50.0 mg/kg/injection, schedule: Q04DX003 (ip), vehicle: saline with Tween-80 89 % of control | [4] 89 % of control and 97 % of control

Cc1cc(C(=O)O)c(C)c([N+](=O)[O-])c1
inactive: [10] 96 % of control | [11] 96 % of control | [12] 100 % of control

COc1cc(C(=O)NNC(=O)c2ccc(Cl)cc2)cc(OC)c1OC
inactive: [2] 94 % of control | [3] 86 % of control

CC(=O)Nc1nc(N)nc2nonc12
inactive: [13] 100 % of control | [14] 98 % of control | [15] 100 % of control | [16] 96 % of control | dose: 200.0 mg/kg/injection, schedule: Q01DX005 (ip), vehicle: saline with Tween-80 93 % of control

CC(=O)NNC(=O)c1ccccn1
inactive: dose: 12.5 mg/kg/injection, schedule: Q01DX009 (ip), vehicle: saline 114 % of control | dose: 25.0 mg/kg/injection, schedule: Q01DX009 (ip), vehicle: saline 110 % of control | dose: 50.0 mg/kg/injection, schedule: Q01DX009 (ip), vehicle: saline 104 % of control | dose: 50.0 mg/kg/injection, schedule: Q#A X018 (ip), vehicle: water 103 % of control | dose: 100.0 mg/kg/injection, schedule: Q01DX001 (ip), vehicle: water 101 % of control | dose: 100.0 mg/kg/injection, schedule: Q01DX009 (ip), vehicle: saline 104 % of control | dose: 100.0 mg/kg/injection, schedule: Q01DX009 (ip), vehicle: water 110 % of control | dose: 100.0 mg/kg/injection, schedule: Q01DX009 (sc), vehicle: water 119 % of control | dose: 200.0 mg/kg/injection, schedule: Q01DX001 (ip), vehicle: water 109 % of control | dose: 200.0 mg/kg/injection, schedule: Q01DX009 (sc), vehicle: water 122 % of control

[O-][n+]1ccccc1F
inactive: [1] 104 % of control

CCOC(=O)/C(N=Nc1ccc(O)cc1)=C(\C)O
inactive: dose: 50.0 mg/kg/injection, schedule: Q01DX009 (ip), vehicle: Klucel (hydroxypropylcellulose) (HPC) 101 % of control | dose: 100.0 mg/kg/injection, schedule: Q01DX009 (ip), vehicle: Klucel (hydroxypropylcellulose) (HPC) 93 % of control | dose: 100.0 mg/kg/injection, schedule: Q04DX003 (ip), vehicle: acetone 95 % of control | dose: 200.0 mg/kg/injection, schedule: Q01DX009 (ip), vehicle: Klucel (hydroxypropylcellulose) (HPC) 96 % of control | dose: 200.0 mg/kg/injection, schedule: Q04DX003 (ip), vehicle: acetone 98 % of control

Clc1cc(CBr)c2ccccc2n1
inactive: [17] 101 % of control

CCC[CH2][Sn]1([CH2]CCC)[O]C2C(CO)OC(n3c(Br)c(C#N)c4c(N)ncnc43)C2[O]1 (configuration not stated)
inactive: dose: 1.56 mg/kg/injection, schedule: Q01DX005 (ip), vehicle: distilled water + Tween-80 93 % of control | dose: 3.13 mg/kg/injection, schedule: Q01DX005 (ip), vehicle: distilled water + Tween-80 98 % of control

COC(=O)CNC(=O)C(F)(F)F
inactive: [1] 104 % of control | [4] 103 % of control | [8] 112 % of control | [5] 101 % of control | [9] 104 % of control | [6] 103 % of control

Cc1cc(N=CN(C)C)c2ccccc2n1
inactive: dose: 3.12 mg/kg/injection, schedule: Q01DX009 (ip), vehicle: other 106 % of control | dose: 6.25 mg/kg/injection, schedule: Q01DX009 (ip), vehicle: other 100 % of control | dose: 12.5 mg/kg/injection, schedule: Q01DX009 (ip), vehicle: other 100 % of control | dose: 25.0 mg/kg/injection, schedule: Q01DX009 (ip), vehicle: other 106 % of control and 107 % of control

C(=NCC1CCC(CN=Cc2ccco2)CC1)c1ccco1 (configuration not stated)
inactive: [10] 107 % of control | [11] 101 % of control | [12] 101 % of control

O=C1C=C(c2ccccc2)C(c2ccccc2)C(c2ccccc2)C1 (configuration not stated)
inactive: [2] 93 % of control | [3] 93 % of control | [7] 96 % of control

C[n+]1c(-c2cc(C(F)(F)F)cc(C(F)(F)F)c2)c2cc(N)ccc2c2ccc(N)cc21
inactive: dose: 6.25 mg/kg/injection, schedule: Q01DX005 (ip), vehicle: saline with Tween-80 106 % of control | [13] 101 % of control | [14] 106 % of control | [15] 111 % of control | [16] 116 % of control

CC1SC(=S)N(c2ccccc2)C1=O (configuration not stated)
inactive: [4] 112 % of control | [5] 97 % of control | [6] 101 % of control

Nc1cc2[nH]c(=O)c3ccccc3c2cc1Br
inactive: dose: 100.0 mg/kg/injection, schedule: Q01DX001 (ip), vehicle: carboxymethylcellulose (CMC) 103 % of control | dose: 200.0 mg/kg/injection, schedule: Q01DX001 (ip), vehicle: carboxymethylcellulose (CMC) 97 % of control | dose: 400.0 mg/kg/injection, schedule: Q01DX001 (ip), vehicle: carboxymethylcellulose (CMC) 100 % of control

CCC1(CC)C=CCC/C1=N\NS(=O)(=O)c1ccc(C)cc1
inactive: [18] 95 % of control | [2] 90 % of control | [4] 95 % of control | [3] 93 % of control | [5] 91 % of control

CSc1ccc(C)cn1 (tested in a mixture with another compound)
inactive: [2] 100 % of control | [3] 97 % of control

CCN(CC)CCC(O)c1ccc2c3ccccc3n(C)c2c1 (configuration not stated)
inactive: [17] 109 % of control

COc1cc2c(ccc3cc4cccc[n+]4cc32)c(Br)c1OC
inactive: dose: 12.5 mg/kg/injection, schedule: Q01DX009 (ip), vehicle: saline with Tween-80 98 % of control | dose: 12.5 mg/kg/injection, schedule: Q04DX003 (ip), vehicle: saline sonified 97 % of control | dose: 25.0 mg/kg/injection, schedule: Q01DX009 (ip), vehicle: saline with Tween-80 100 % of control | dose: 25.0 mg/kg/injection, schedule: Q04DX003 (ip), vehicle: saline sonified 97 % of control | [18] 100 % of control | dose: 50.0 mg/kg/injection, schedule: Q04DX003 (ip), vehicle: saline sonified 103 % of control

CCCCC(NC(=O)CCl)C(=O)O (configuration not stated)
inactive: [17] 95 % of control | dose: 200.0 mg/kg/injection, schedule: Q04DX002 (ip), vehicle: saline with Tween-80 103 % of control

C=Cc1nnnn1C12CC3CC(CC(C3)C1)C2
inactive: dose: 50.0 mg/kg/injection, schedule: Q01DX001 (ip), vehicle: saline with Tween-80 106 % of control | [10] 112 % of control

Clc1ccc(N=Cc2ccccc2Cl)cc1
inactive: [4] 107 % of control | [5] 113 % of control | [6] 100 % of control

CCc1ccc(NC(=O)c2ccccc2C(=O)O)cc1
inactive: [2] 102 % of control | [4] 101 % of control | [3] 98 % of control | [5] 97 % of control | [7] 105 % of control | [6] 97 % of control
